We go through two molecules from paper PMC5578959, “Selective LRRK2 kinase inhibition reduces phosphorylation of endogenous Rab10 and Rab12 in human peripheral mononuclear blood cells” (Scientific Reports, 2017).

One experiment concerns RAB10. Put plainly: Phosphoproteomic analysis, immune stimulated human PBMCs. It counts as cell-based. The note with it: 100 nM, 24 hrs. The procedure: (§1) Freshly isolated PBMCs were plated at a density ranging from 7–20 × 10^6 cells in 10 cm petri dishes (Costar 3262) in RPMI-1640 media (Gibco 61870–010) supplemented with 10% non-heat inactivated FBS, 5 ml Antimycotic (Sigma cat:5965) with or without an immune stimulation cocktail consisting of 400 nM phorbol 12-myristate 13-acetate (PMA) and 100 ng/ml interferon-γ (INF-γ). After 48 hrs in culture the cultures were added a fifth of the volume media containing 5x the final concentration of the respective LRRK2 inhibitor with or without PMA and interferon-γ. […] Approximately, 400 µg of protein from each individual donor was needed in order to run the full PBMC stimulation and inhibition study with subsequent global proteome and phosphoproteome (PhosphoScout®) analyses. […]
(§2) Upon the respective treatments cells were washed with cold PBS, snap-frozen in liquid N2 and shipped to Evotec on dry-ice. […] Cell lysis was performed in ice-cold lysis buffer (8 M urea, 50 mM Tris pH 8.2, 10 mM sodium pyrophosphate, 5 mM EDTA, 5 mM EGTA, 10 mM sodium fluoride, 10 mM β-glycerophosphate, 10 mM sodium orthovanadate, phosphatase inhibitor cocktail 2 and 3 (Sigma, 1:100 (v/v)) and Complete protease inhibitor cocktail tablets (Roche). Cell extracts were sonicated on ice and the cell debris was removed by centrifugation before protein concentrations were determined (Bradford, BioRad). […]

A further experiment deals with RAB12. Described as above. It counts as cell-based. The note with it: 100 nM, 24 hrs. The procedure:
as §1, §2

A further experiment has as its system T1, CASK.
T1 construct: purchased ActivX Technologies (KiNativ)
Put plainly: KiNativ profiling in human PBMCs. It counts as binding. Conditions: Lys1.

The test system of a further experiment is T2, CDK9.
T2 construct: purchased ActivX Technologies (KiNativ)
The experiment can be described thus: KiNativ profiling in human PBMCs. It counts as binding. The note with it: Lys2.

The next experiment deals with T3, CK1a.
T3 construct: purchased ActivX Technologies (KiNativ)
Put plainly: KiNativ profiling in human PBMCs. It counts as binding. The note with it: Lys2.

Molecules are shown by their SMILES.

As for `Cc1cccc(-c2cc(Nc3ccn(C)n3)nc3[nH]cc(C#N)c23)c1` [Lu AF58786], the “reduced level of phosphorylation, Thr73 on Rab10” value in the experiment on RAB10 is given as “approximately 2 fold”. Also, the “reduced level of phosphorylation, Ser106 on Rab12” value with RAB12 was “approximately 2 fold”.

By % Inhibition is commonly meant the drop in the measured response relative to a control, in per cent. In the case of `Cn1cc(-c2c[nH]c3ncnc(N4CCOCC4)c23)cc1C#N` [PFE-360], the “% Inhibition” value was 4.6% in the experiment on CASK (0.1µM); 8.6% in the experiment on CASK (1µM); -8.9% with CDK9 (0.1µM); -4.4% in the experiment with CDK9 (1µM); -17.4% in the experiment on CK1a (0.1µM); 4.6% in the experiment with CK1a (1µM).
